Assay results from ChEMBL document CHEMBL1201862, “PubChem BioAssay data set” (2004).
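These data come from cells grown in 96-well plates and exposed to compound for 48 hours at five concentrations. The concentration for 50% growth inhibition is given as GI50.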 Activity calls are given as the source filed them. Rule as the data show it: active = GI50 up to about 1.1 µM and inactive = higher. Where a SMILES comes first, the peptide text is derived from it. Non-standard residues stand in square brackets, D forms with d. Residues, ends and D or L forms follow the SMILES beside them. The star is where a group is joined. *: point of attachment. Bn2Val = CC(C)[C@@H](C(=O)*)N(Cc1ccccc1)Cc1ccccc1; NH(4-Cl-benzyl) = Clc1ccc(CN*)cc1; NMeV = CN[C@H](C(=O)O)C(C)C; dNMeA = CN[C@H](C)C(=O)O; Boc = CC(C)(C)OC(=O)*

Key:
Test in all cases: inhibition of tumour cell growth, NCI panel, 48 h
K562 = test system: K562
OVCAR-3 = test system: OVCAR-3
NCI-H226 = test system: NCI-H226
SK-MEL-5 = test system: SK-MEL-5
Malme-3M = test system: Malme-3M
HCC 2998 = test system: HCC 2998
NCI-H460 = test system: NCI-H460
SNB-75 = test system: SNB-75
HL-60 = test system: HL-60
TK-10 = test system: TK-10
SF-268 = test system: SF-268
KM12 = test system: KM12
ACHN = test system: ACHN
MDA-N = test system: MDA-N
A498 = test system: A498
NCI-H23 = test system: NCI-H23
MDA-MB-231 = test system: MDA-MB-231

SMILES | GI50 (K562) | GI50 (OVCAR-3) | GI50 (NCI-H226) | GI50 (SK-MEL-5) | GI50 (Malme-3M) | GI50 (HCC 2998) | GI50 (NCI-H460) | GI50 (SNB-75) | GI50 (HL-60) | GI50 (TK-10) | GI50 (SF-268) | GI50 (KM12) | GI50 (ACHN) | GI50 (MDA-N) | GI50 (A498) | GI50 (NCI-H23) | GI50 (MDA-MB-231)
CCOC(=O)C(CC(C)C)NC(=O)C(Cc1ccccc1)NC(=O)CNC(=O)OC(C)(C)C (stereo not drawn) (Boc-Gly-Phe-Leu-OEt; configuration not given here) | 19 µM (inactive) | 17.2 µM (inactive) | 17.3 µM (inactive) | 20.8 µM (inactive) | 19.9 µM (inactive) | 19.7 µM (inactive) | 12.1 µM (inactive) | 16.3 µM (inactive) | 2.42 µM (inactive) | 31 µM (inactive) | 21 µM (inactive) | 18.5 µM (inactive) | 17.1 µM (inactive) | 14.7 µM (inactive) | 22.1 µM (inactive) |  | 
CC(C)[C@H](NC(=O)[C@H](C(C)C)N(Cc1ccccc1)Cc1ccccc1)C(=O)N(C)[C@H](C(=O)N1CCC[C@H]1C(=O)N(C)[C@H](C)C(=O)NCc1ccc(Cl)cc1)C(C)C (Bn2Val-V[NMeV]P[dNMeA]-{NH(4-Cl-benzyl)}) | 4.04 µM (inactive) | 2.76 µM (inactive) | 3.72 µM (inactive) | 3.89 µM (inactive) | 10.3 µM (inactive) |  | 3.96 µM (inactive) | 3.44 µM (inactive) | 1.77 µM (inactive) | 5.87 µM (inactive) | 2.98 µM (inactive) | 3.38 µM (inactive) | 2.98 µM (inactive) | 4.43 µM (inactive) |  | 3.37 µM (inactive) | 2.65 µM (inactive)
CCCCOCCOCCOC1=CC(=O)c2c(O)ccc(O)c2C1=O | 2.5 µM (inactive) | 1.61 µM (inactive) | 2.01 µM (inactive) | 1.05 µM (active) | 0.4 µM (active) | 1.82 µM (inactive) | 1.95 µM (inactive) |  | 2.27 µM (inactive) | 3.05 µM (inactive) | 4.26 µM (inactive) | 1.83 µM (inactive) | 1.66 µM (inactive) | 0.167 µM (active) |  | 1.82 µM (inactive) | 1.73 µM (inactive)
O=C(c1ccco1)N(Cc1cccnc1)C(=S)N(Cc1cccnc1)C(=O)c1ccco1 | 4.84 µM (inactive) | 6.35 µM (inactive) | 19.5 µM (inactive) | 14.6 µM (inactive) | 16.7 µM (inactive) | 17.5 µM (inactive) | 22.6 µM (inactive) | 38.8 µM (inactive) | 15.8 µM (inactive) | 10.8 µM (inactive) | 18.7 µM (inactive) | 3.9 µM (inactive) | 17 µM (inactive) |  | 25.7 µM (inactive) | 23.8 µM (inactive) | 8.75 µM (inactive)
CCOC(=O)c1cn(C)c(=S)n2c1nc1ccccc12 | > 100 µM (inactive) | > 100 µM (inactive) | 60.7 µM (inactive) | 86.7 µM (inactive) |  | > 100 µM (inactive) | 45.6 µM (inactive) | > 100 µM (inactive) |  |  |  | 98.9 µM (inactive) | 49.1 µM (inactive) |  | 22.3 µM (inactive) | 91.8 µM (inactive) | 91.8 µM (inactive)
O=C(O)c1ccc(Oc2nc3ccccc3s2)cc1 | > 100 µM (inactive) | > 100 µM (inactive) | > 100 µM (inactive) | > 100 µM (inactive) | > 100 µM (inactive) |  | > 100 µM (inactive) |  | > 100 µM (inactive) | > 100 µM (inactive) | > 100 µM (inactive) | > 100 µM (inactive) | > 100 µM (inactive) |  | > 100 µM (inactive) | > 100 µM (inactive) | > 100 µM (inactive)
Cc1nn(C(=O)c2ccccc2O)c2c1C(c1ccco1)SC(=N)N2 (centres undefined) | 2.93 µM (inactive) | 3.32 µM (inactive) | 3.43 µM (inactive) |  | > 10 µM (inactive) |  | 4.32 µM (inactive) | 1.45 µM (inactive) | 4.94 µM (inactive) | > 10 µM (inactive) | 4.09 µM (inactive) | 5.47 µM (inactive) | 3.42 µM (inactive) | 7.4 µM (inactive) | 6.07 µM (inactive) | > 10 µM (inactive) | 5.79 µM (inactive)
CCN(CC)c1ccc2cc(C(=O)Nc3ccccc3OC)c(=N)oc2c1 | 18.5 µM (inactive) | 43.2 µM (inactive) |  | 32.1 µM (inactive) | 32.3 µM (inactive) | 21.8 µM (inactive) | 5.16 µM (inactive) |  | 7.5 µM (inactive) |  | 8.15 µM (inactive) | 33.1 µM (inactive) | 11.3 µM (inactive) |  | 31.3 µM (inactive) | 20.4 µM (inactive) | 
Cc1oc(N)c(S(=O)(=O)c2ccc(Cl)cc2)c1C | 53.6 µM (inactive) | 29.1 µM (inactive) | 53.1 µM (inactive) | 44.7 µM (inactive) | 29.9 µM (inactive) | 23.8 µM (inactive) | 22.2 µM (inactive) | 29.9 µM (inactive) | 88.9 µM (inactive) | 83.6 µM (inactive) | 43.1 µM (inactive) | 37.1 µM (inactive) | 37 µM (inactive) |  | > 100 µM (inactive) | 32.8 µM (inactive) | 
O=C(NC1CCN(Cc2ccccc2)CC1)c1ccccc1I | 23.3 µM (inactive) | 43.9 µM (inactive) | 25.8 µM (inactive) | 16.9 µM (inactive) | 17.5 µM (inactive) |  | 24.7 µM (inactive) |  | 38.9 µM (inactive) | 21.6 µM (inactive) | 39.3 µM (inactive) | 17.3 µM (inactive) | 49.3 µM (inactive) |  | 57 µM (inactive) | 26.2 µM (inactive) | 24.2 µM (inactive)
CCOC(=O)[C@@]12C[C@](/C=C/OC)(O[Si](C)(C)C)[C@@]13c1cc(OC)c(OC)cc1CCN3C(=O)C2O (some centres undefined) | > 100 µM (inactive) | > 100 µM (inactive) | > 100 µM (inactive) | 38.5 µM (inactive) | > 100 µM (inactive) |  | > 100 µM (inactive) | 47.6 µM (inactive) |  | > 100 µM (inactive) | > 100 µM (inactive) | > 100 µM (inactive) | > 100 µM (inactive) | > 100 µM (inactive) | > 100 µM (inactive) | > 100 µM (inactive) | > 100 µM (inactive)
COC(=O)c1cn(CCCC(=O)O)nn1 |  |  | > 100 µM (inactive) | > 100 µM (inactive) | > 100 µM (inactive) | > 100 µM (inactive) | > 100 µM (inactive) | > 100 µM (inactive) |  | > 100 µM (inactive) | > 100 µM (inactive) | > 100 µM (inactive) | > 100 µM (inactive) | > 100 µM (inactive) |  | > 100 µM (inactive) | > 100 µM (inactive)
O=C1C=C(NCCc2cc(Br)c(O)c(Br)c2)C(=O)c2[nH]cnc21 | 14.9 µM (inactive) | 21.6 µM (inactive) | 23 µM (inactive) | 15.6 µM (inactive) | 15 µM (inactive) | 11.5 µM (inactive) | 11.1 µM (inactive) | 21.9 µM (inactive) | > 10 µM (inactive) | 89.7 µM (inactive) | 49 µM (inactive) | 48.5 µM (inactive) | 42.9 µM (inactive) | 18.6 µM (inactive) |  | 10.8 µM (inactive) | 29.4 µM (inactive)
O=C(CCN1CCCCC1)Nc1ccc2sc3ccccc3c(=O)c2n1 | 6.38 µM (inactive) | 15.8 µM (inactive) |  | 21.6 µM (inactive) | 28 µM (inactive) | 14.4 µM (inactive) | 13.7 µM (inactive) | 10.5 µM (inactive) | 3.89 µM (inactive) | 15.7 µM (inactive) | 16.3 µM (inactive) | 15.9 µM (inactive) | 10.2 µM (inactive) | 14.3 µM (inactive) |  | > 10 µM (inactive) | 14.7 µM (inactive)
C[C@H]1SC(c2ccc(Cl)cc2Cl)N(NC(=O)c2ccncc2)C1=O (some centres undefined) | 23.5 µM (inactive) | 42 µM (inactive) | 18.5 µM (inactive) | 19.2 µM (inactive) | 64.1 µM (inactive) |  | 45.5 µM (inactive) | 45.7 µM (inactive) | 28.9 µM (inactive) |  | 22.5 µM (inactive) | 36.7 µM (inactive) | 27.5 µM (inactive) | 23 µM (inactive) | 12.4 µM (inactive) | 33.3 µM (inactive) | 33.9 µM (inactive)
COc1ccc(-c2cc(-c3ccncc3)nc(N)c2-c2ccc(F)cc2)cc1 | > 100 µM (inactive) | 27.9 µM (inactive) | 46.1 µM (inactive) | 35.1 µM (inactive) | > 100 µM (inactive) |  | 15.5 µM (inactive) | 11.5 µM (inactive) |  | 35.2 µM (inactive) | 44 µM (inactive) | 33.8 µM (inactive) | 3.76 µM (inactive) |  | 46.3 µM (inactive) | 76 µM (inactive) | > 100 µM (inactive)
Cc1c(/N=C/C=C/c2ccccc2)c(=O)n(-c2ccccc2)n1C |  | 24.5 µM (inactive) | 13.6 µM (inactive) | 15.3 µM (inactive) | 25.4 µM (inactive) |  | 87.5 µM (inactive) |  | 16.1 µM (inactive) | 30.2 µM (inactive) | 33.6 µM (inactive) | 21.3 µM (inactive) | 29.8 µM (inactive) | 18.5 µM (inactive) | 14.7 µM (inactive) | 23.4 µM (inactive) | 34.8 µM (inactive)
CCOC(=O)c1[nH]cc(C)c1-c1ccn(-c2ccccc2)c1 | 21.1 µM (inactive) | 19.6 µM (inactive) | 51.5 µM (inactive) | 21.7 µM (inactive) |  | 41.9 µM (inactive) | 38.6 µM (inactive) | 13.3 µM (inactive) |  | 27.5 µM (inactive) | 44.7 µM (inactive) | 19.6 µM (inactive) | 50.2 µM (inactive) | 35.6 µM (inactive) | > 100 µM (inactive) | 49.5 µM (inactive) | 
